“Also recorded” adds a separate entry of the source. Where two headings read alike, the source gives them in different places.
Assays:
[1] = Plasma or serum concentration in humans; settings: dose of about 10 to about 20 mg/day
[2] = system: spores (Bacillus cereus ATCC 10987); assay type: cell-based
[3] = system: Bacillus cereus ATCC 10987 spores; assay type: cell-based
B. anthracis spores = settings: guinea pig, in vivo; cited from earlier work

## NC(=O)C1=C(O)C[C@@H]2C[C@@H]3Cc4cccc(O)c4C(=O)C3=C(O)[C@]2(O)C1=O [COL-3, 6-demethyl-6-deoxy-4-de(dimethylamino)tetracycline]
[1]
  plasma or serum concentrations: about 1.0 μg/ml
[2]
  early germination (Gram stain): occurred in both the presence and absence of COL-3
  minimum concentration to inhibit outgrowth: 1 μg per ml
  outgrowth into vegetative cells: inhibited
[2]; time=40 min
  development of spores into vegetative cells (Gram stain): no further development
[2]; time=60 min
  development of spores into vegetative cells (Gram stain): do not develop
[3]
  rate of decrease in absorbance in the presence and absence of COL-3: not significantly different
[3]; 37° C.
  inhibition of the early phase (initial stages) of germination: did not inhibit; also recorded: no effect

## CN(C)[C@@H]1C(O)=C(C(N)=O)C(=O)[C@@]2(O)C(O)=C3C(=O)c4c(O)cccc4[C@@](C)(O)[C@H]3C[C@@H]12 [tetracycline]
B. anthracis spores
  death of infected animals during treatment: prevented death

— US20070015739A1, “Use of non-antibacterial tetracycline formulations for inhibiting bacterial spores” (priority 2005, published 2007)
